In brackets after ≈: the same amount, converted by molar mass. Read-outs that look alike come from different tables or passages of the source.
Experiments:
[1] = test system: Escherichia coli ATCC 10530; assay: MIC determination; type: cell-based; settings: Escherichia coli ATCC 10530; 18 h
Method: (§1) The antibacterial activity of tested samples was assessed against both gram-positive bacteria (Staphylococcus aureus ATCC 25923, Staphylococcus aureus ATCC 6538, Staphylococcus epidermidis ATCC 12228, Enterococcus faecalis ATCC 29212, Listeria monocytogenes ATCC 19115, Bacillus subtilis ATCC 6633, Bacillus cereus ATCC 10876) and gram-negative bacteria (Escherichia coli ATCC 10530, Salmonella typhimurium ATCC 14028). Antibacterial properties were evaluated using both the dilution method (employing DMSO and 96-well plates) and the diffusion-well method (using Mueller Hinton Agar, Merck, Germany).
(§2) The minimum inhibitory concentrations (MICs) of the tested samples were evaluated against a panel of reference microorganisms obtained from the American Type Culture Collection (ATCC), including Gram-negative bacteria (Escherichia coli ATCC 10530, Salmonella typhimurium ATCC 14028), and Gram-positive bacteria (Staphylococcus aureus ATCC 25923, Staphylococcus aureus ATCC 6538, Staphylococcus epidermidis ATCC 12228, Enterococcus faecalis ATCC 29212, Listeria monocytogenes ATCC 19115, Bacillus subtilis ATCC 6633), and one strain (Bacillus cereus ŁOCK 0807) obtained from the Pure Culture of Industrial Microorganisms of the Institute of Fermentation Technology and Microbiology ŁOCK 105 (Łódź, Poland).
(§3) The microorganism cultures with a density of 1.5 × 10^8 CFU mL^−1 (corresponding to a McFarland standard of 0.5) were plated on Mueller–Hinton Agar (Merck, Germany) following the procedures recommended by the European Committee on Antimicrobial Susceptibility Testing (EUCAST).[47] Wells measuring 10 mm in diameter were cut into the medium. The tested compounds were dissolved in a DMSO solution, which was recommended due to their chemical structures. Subsequently, 100 μL of prepared solutions containing the tested compounds at concentrations ranging from x μg mL^−1 to x μg mL^−1 were added to each well. The plates were incubated at 30 °C (for Bacillus subtilis and Bacillus cereus) or 37 °C (for other bacteria) for 18 hours. After incubation, the minimum inhibitory concentration (MIC value) was determined (the lowest concentration of the tested compounds that prevents bacterial growth) and expressed in μg mL^−1. The experiment was conducted in three independent replicates. Ciprofloxacin (Sigma Aldrich, Saint Louis, MO, USA) was used as a reference antimicrobial agent against Gram-negative bacteria, while vancomycin (Sigma Aldrich, Saint Louis, MO, USA) was used as a reference antimicrobial agent against Gram-positive bacteria.

[2] = test system: Salmonella typhimurium ATCC 14028; assay: MIC determination; type: cell-based; settings: 18 h
Method: as §1, §2, §3

[3] = test system: glioblastoma LN-229 cells; assay: MTT cell viability assay; type: cell-based, human; settings: 48 hours of incubation
Method: (§4) The glioblastoma cell lines LN-229 and U87 and the reference human normal skin fibroblast BJ were obtained from the American Type Culture Collection (ATCC). Cells were grown as monolayers when cultured in cell culture flasks and cultured in Dulbecco's Modified Eagle Medium (DMEM) – LN-229 and Eagle's Minimum Essential Medium (EMEM) – U87 and BJ, supplemented with 10% (v/v) fetal bovine serum, penicillin (10 000 U mL^−1), streptomycin (10 mg mL^−1) and amphotericin B (250 μg mL^−1). The cells were incubated at 37 °C, 5% CO2 atmosphere. The cells were maintained in the logarithmic growth phase by regular passage at 80% confluence.
(§5) The cytotoxicity of the tested compounds was evaluated against both human glioblastoma LN-229 and U-87 as well as normal BJ cell lines. The cells were plated in 96-well culture plates (2 × 10^4 well) and after 24 h incubation the cells were treated with the tested compounds in the concentration range 1–50 μM. The cells were cultured for the next 48 h. The cytotoxicity of the compounds was evaluated using the MTT colorimetric method as previously described.[28,29] IC50 values were determined using the AAT Bioquest IC50 calculator as the concentration of compounds capable of reducing cell viability by 50%. The experiment was performed in triplicate for each concentration. To examine the cytotoxic effect of compounds on cell morphology, cells were examined under an inverted phase contrast microscope Nikon Eclipse Ti with NIS Element software (Tokyo, Japan).

[4] = test system: normal skin fibroblast BJ cells; assay: MTT cell viability assay; type: cell-based, human; settings: BJ normal fibroblasts, 48 hours of incubation
Method: as §4, §5

[5] = test system: glioblastoma U87 cells; assay: MTT cell viability assay; type: cell-based, human; settings: 48 hours of incubation
Method: as §4, §5

[6] = test system: E. coli ATCC 10530; assay: Diffusion-well method, inhibition zones; type: cell-based, Escherichia coli; settings: 500 µg/mL, wells 10 mm
Method: as §1
(§6) 24 hour bacterial cultures with a density of 1–2 × 10^8 CFU mL^−1 were plated (0.1 mL) on Mueller–Hinton Agar (Merck, Germany). Subsequently, wells with a diameter of 10 mm were cut out from and filled with 100 μL of the tested compound at a concentration of 10–500 μg mL^−1 (diluted in DMSO). After an 18-hour incubation at either 30 °C (for Bacillus ssp.) or 37 °C (for other tested microorganisms), the inhibition zones around the wells were measured, and the results were expressed in millimetres (Table S9 ^†).

[7] = test system: Staphylococcus epidermidis ATCC 12228; assay: MIC determination; type: cell-based; settings: S. epidermidis ATCC 12228, 18 h
Method: as §1, §2, §3

[8] = test system: Staphylococcus aureus ATCC 25923; assay: MIC determination; type: cell-based; settings: S. aureus ATCC 25923, 18 h
Method: as §1, §2, §3

[9] = test system: Listeria monocytogenes ATCC 19115; assay: MIC determination; type: cell-based; settings: Listeria monocytogenes ATCC 19115, 18 h
Method: as §1, §2, §3

[10] = test system: Enterococcus faecalis ATCC 29212; assay: MIC determination; type: cell-based; settings: E. faecalis ATCC 29212, 18 h
Method: as §1, §2, §3

[11] = test system: Bacillus cereus ŁOCK 0807; assay: MIC determination; type: cell-based; settings: 18 h
Method: as §1, §2, §3

[12] = test system: Staphylococcus aureus ATCC 6538; assay: MIC determination; type: cell-based; settings: S. aureus ATCC 6538, 18 h
Method: as §1, §2, §3

[13] = test system: Bacillus subtilis ATCC 6633; assay: MIC determination; type: cell-based
Method: as §1, §2, §3

[14] = test system: E. faecalis ATCC 29212; assay: Diffusion-well method, inhibition zones; type: cell-based, Enterococcus faecalis; settings: 500 µg/mL, wells 10 mm
Method: as §1, §6

[15] = Time-dependent UV-vis solution stability in DMSO; type: physicochemical; settings: 0 min to 48 h, room temperature
Text: The stability of metal complexes is a crucial property that provides insight into their interactions with biological molecules, as it directly impacts their reactivity, bioavailability, and effectiveness in therapeutic applications. Additionally, the solubility of these complexes in dimethyl sulfoxide (DMSO) is of considerable importance, as solubility data are essential for optimizing storage conditions and ensuring compatibility with biological assays.[39] DMSO, a widely used solvent in drug discovery, serves as a medium that supports the stability and bioavailability of complexes under assay conditions, which is critical for maintaining the integrity of analytical protocols and enabling accurate assessments of biological activity. For the obtained complexes, the time-dependent UV-vis investigations in DMSO (Fig. 5 and S9 ^†) were carried out from 0 min to 48 h (0 min, 30 min, 1 h, 2 h, 3 h, 24 h, 48 h).
The sample solutions (50 μL (1.0 × 10^−3 M)) of the complexes were prepared in DMSO (Sigma Aldrich, ≥99.9%). The absorption spectra of the complexes were measured with increasing time (0 min, 30 min, 60 min, 2 h, 3 h, 24 h, 48 h) at room temperature. All measurements were performed on the Shimadzu UV-2401PC.

[16] = test system: L. monocytogenes ATCC 19115; assay: Diffusion-well method, inhibition zones; type: cell-based, Listeria monocytogenes; settings: 500 µg/mL, wells 10 mm
Method: as §1, §6

[17] = test system: S. aureus ATCC 25923; assay: Diffusion-well method, inhibition zones; type: cell-based, Staphylococcus aureus; settings: 500 µg/mL, wells 10 mm
Method: as §1, §6

[18] = test system: S. aureus ATCC 6538; assay: Diffusion-well method, inhibition zones; type: cell-based, Staphylococcus aureus; settings: 500 µg/mL, wells 10 mm
Method: as §1, §6

[19] = test system: B. subtilis ATCC 6633; assay: Diffusion-well method, inhibition zones; type: cell-based, Bacillus subtilis; settings: 500 µg/mL, wells 10 mm
Method: as §1, §6

[20] = test system: B. cereus ŁOCK 0807; assay: Diffusion-well method, inhibition zones; type: cell-based, Bacillus cereus; settings: 500 µg/mL, wells 10 mm

Structure (SMILES)	MIC [1]	IC50 [3]	IC50 [4]	IC50 [5]	Inhibition zone [6]	MIC [7]	MIC [8]	MIC [9]	MIC [10]	MIC ([2]; S. typhimurium ATCC 14028)	MIC ([11]; Bacillus cereus ŁOCK 0807)	MIC [12]	MIC ([13]; 18 h)	hypochromic effect [15]	Inhibition zone [17]	Inhibition zone [18]	further results
O=C(O)c1cn(C2CC2)c2cc(N3CCNCC3)c(F)cc2c1=O [Ciprofloxacin, reference compound]	1 mg/L (≈ 3.02 µM)	–	–	–	–	–	–	–	–	–	–	–	–	–	–	–	MIC ([2]; Salmonella enterica): 1 mg/L (≈ 3.02 µM)
N.N.[Cl][Pt][Cl] [Cisplatin, reference compound]	–	29.09 ± 0.23 µM	> 50 µM	39.6 ± 1.13 µM	–	–	–	–	–	–	–	–	–	–	–	–	–
NC(=NN=Cc1ccccc1)c1cc(Cl)ccn1.O=[N+]([O-])[O-].[Ag+] [Complex 3, AgL3NO3]	10 mg/L	> 50 µM	> 50 µM	32 ± 7.08 µM	20 mm	250 mg/L	100 mg/L	10 mg/L	50 mg/L	500 mg/L	50 mg/L	50 mg/L	10 mg/L	2.31%	15 mm	15 mm	Inhibition zone [14]: 13 mm; Inhibition zone [16]: 19 mm; Inhibition zone [19]: 17 mm; Inhibition zone [20]: 18 mm
NC(=NN=Cc1ccc([N+](=O)[O-])cc1)c1cccc(Cl)n1.NC(=NN=Cc1ccc([N+](=O)[O-])cc1)c1cccc(Cl)n1.[Cd+2].[Cl-].[Cl-] [Complex 7, Cd (L2)2Cl2]	500 mg/L	> 50 µM	41.7 ± 4.18 µM	> 50 µM	12 mm	> 500 mg/L	100 mg/L	> 500 mg/L	> 500 mg/L	> 500 mg/L	> 500 mg/L	500 mg/L	> 500 mg/L	27.7%	15 mm	13 mm	shift of peak maxima [15]: 15 nm
NC(=NN=Cc1ccccc1)c1cc(Cl)ccn1.[Cd+2].[Cl-].[Cl-] [Complex 8, CdL3Cl2]	10 mg/L	> 50 µM	25.8 ± 4.48 µM	10.9 ± 3.8 µM	20 mm	> 500 mg/L	100 mg/L	> 500 mg/L	> 500 mg/L	> 500 mg/L	> 500 mg/L	500 mg/L	> 500 mg/L	36.3%	15 mm	–	shift of peak maxima [15]: 4 nm
NC(=NN=Cc1ccc([N+](=O)[O-])cc1)c1cccc(N2CCCC2)n1.[Cd+2].[Cl-].[Cl-] [Complex 9, CdL4Cl2]	10 mg/L	45.3 ± 2.18 µM	1.05 ± 0.32 µM	> 50 µM	20 mm	> 500 mg/L	10 mg/L	500 mg/L	10 mg/L	> 500 mg/L	250 mg/L	250 mg/L	> 500 mg/L	–	16 mm	13 mm	Inhibition zone [14]: 14 mm; Inhibition zone [16]: 12 mm; Inhibition zone [20]: 13 mm
N/C(=N\N=C\c1ccc([N+](=O)[O-])cc1)c1cccc(Cl)n1 [Complex L2, 6-chloro-N′-(4-nitrobenzylidene) picolinohydrazonamide]	–	–	–	–	–	–	–	–	–	–	–	–	–	–	–	–	IC50 ([3]; Homo sapiens): 40.8 ± 6.12 µM; IC50 ([4]; Homo sapiens): 35.5 ± 4.33 µM; IC50 ([5]; Homo sapiens, U-87 MG): > 50 µM
NC(=NN=Cc1ccccc1)c1cc(Cl)ccn1 [Complex L3, N′-(benzylidene)-4-chloropicolinohydrazonamide]	–	–	–	–	–	–	–	–	–	–	–	–	–	–	–	–	IC50 ([3]; Homo sapiens): > 50 µM; IC50 ([4]; Homo sapiens): > 50 µM; IC50 ([5]; Homo sapiens, U-87 MG): > 50 µM
CN[C@H](CC(C)C)C(=O)N[C@H]1C(=O)N[C@@H](CC(N)=O)C(=O)N[C@H]2C(=O)N[C@H]3C(=O)N[C@H](C(=O)N[C@H](C(=O)O)c4cc(O)cc(O)c4-c4cc3ccc4O)[C@H](O)c3ccc(c(Cl)c3)Oc3cc2cc(c3O[C@@H]2O[C@H](CO)[C@@H](O)[C@H](O)[C@H]2O[C@H]2C[C@](C)(N)[C@H](O)[C@H](C)O2)Oc2ccc(cc2Cl)[C@H]1O [Vancomycin, vancomycin, reference compound]	–	–	–	–	–	–	–	–	–	–	–	–	–	–	–	–	MIC ([7]; Staphylococcus epidermidis, ATCC12228, read-out: MIC): 1 mg/L (≈ 0.69 µM); MIC ([8]; Staphylococcus aureus, ATCC25923, read-out: MIC): 1 mg/L (≈ 0.69 µM); MIC ([9]; ATCC19115, read-out: MIC): 2 mg/L (≈ 1.38 µM); MIC ([10]; Enterococcus faecalis, ATCC29212, read-out: MIC): 1 mg/L (≈ 0.69 µM); MIC ([11]; Bacillus cereus): 1 mg/L (≈ 0.69 µM); MIC ([12]; Staphylococcus aureus, ATCC6538, read-out: MIC): 1 mg/L (≈ 0.69 µM); MIC ([13]; ATCC6633, 18 h, read-out: MIC): 1 mg/L (≈ 0.69 µM)

Source: paper PMC12150283, “Synthesis of new Ag(I) and Cd(II) hydrozanomide-based complexes with antibacterial and anticancer properties” (RSC Advances, 2025)
